Measurements from US11033630B2, “Method and pharmaceutical composition for treatment of neurodegeneration” (priority 2016, dated 2021).
Like-named read-outs stand apart in the source and are kept apart here.

Experiments:
[1] = complex with Cu(II); cited from earlier work
[2] = Blood-Brain Barrier (BBB) penetration: DFO concentration in rat brain after IP injection; conditions: for DFO (mg/g organ) / DFO (mg/whole organ): rat brain, 90 min after IP injection
Description: (§1) In this study, the ability of the Zn-DFO complex to infiltrate into the brain was examined. Rats were injected intraperitoneally (IP) with increasing amounts of DFO alone or Zn-DFO complex, and the concentration of DFO was measured in their brains, thus monitoring their infiltrability.
(§2) In particular, male Sprague-Dawley (SD) rats (300 g average body weight, 3 animals per group) were injected IP with DFO (250, 500, or 1000 mg/kg body weight). For comparison, Zn-DFO solution in freshly prepared saline was injected IP (250, 500, or 1000 mg/kg body weight, which are equivalent to 883, 442, or 221 mg DFO/kg body weight, respectively).
(§3) The behavior of the rats was monitored for 90 min following the injection. Then, the animals were euthanized using an injection of ketamine-xylazine, and their hearts, livers, left kidneys, and brains were excised and weighted. Brain samples (300 mg tissue) were homogenized in 3 ml Lysis buffer. Tissue homogenates were incubated at 110° C. for 5 min and centrifuged for 5 min at 14,500 relative centrifugal force (RCF). An equal volume of 40% trichloroacetic acid (TCA) solution was added, forming a solution containing 20% TCA, which was vortexed and centrifuged again. The supernatants were transferred into cuvettes, and DFO concentration was spectrophotometrically measured, after addition of 10 mM of ferric iron solution (as a weak complex of iron, ferric-nitrilo-tri-acetate, at pH=7.4), and scanning the range of λ=380-580 nm. The final concentration was calculated according to the Beer-Lambert law, using εDFO=2460 M^−1cm^−1; the total amount of DFO per gram tissue and per whole brain were calculated.

[3] = complex with Ga(III); cited from earlier work
[4] = complex with Zn(II); cited from earlier work
[5] = Behavior of rats monitored after IP injection; conditions: monitored for 90 min
Description: as §2
(§4) The behavior of the rats was monitored for 90 min following the injection.

[6] = complex with Fe(III); cited from earlier work
[7] = tested on: streptozotocin (STZ)-induced model in C57BL/6 mice; experiment: Streptozotocin-induced model of Alzheimer disease; format: in vivo; conditions: IP, Zn-DFO/Ga-DFO 2 and 6 mg/kg daily, Eu-DFO 4 mg/kg
Description: In this study, the therapeutic effect of metal-DFO complex on Alzheimer disease is tested, using the streptozotocin (STZ)-induced model in mice.
The disease is induced in 10 weeks old male C57BL/6 mice. The animals are placed into a stereotaxic frame for mice with nose and ear bars. STZ (3 mg/kg) or citrate buffer (for the control group) is injected bilaterally into the lateral ventricles at the following coordinates: AP—0.5 mm; ML ±1.1 mm; DV—2.8 mm relative to the bregma in a total volume of 1.5 μl to hemisphere. The injections are repeated 2 days after the first STZ injection (1.5 mg/kg). In order to confirm that the stereotaxic coordinates used throughout the study are suitable for STZ injection into lateral ventricles, FITC-labeled latex microspheres are injected into lateral ventricles and the presence of fluorescence in the surrounding brain tissue is examined 24 h after injection. Mice are treated with Zn-DFO or Ga-DFO daily, by IP injections of 2 mg/kg and 6 mg/kg, and with Eu-DFO as IP injection, 4 mg/kg. During 21 days of the experiment the mice undergo maze tests and novel object recognition (NOR) tests every 7 days. Clinical signs including general body condition and dehydration are monitored daily after the surgery. Every 7 days a representative number of mice is taken from each group and euthanized for Alzheimer's disease markers (amyloid-β protein, neurofilament expression, phosphorylation of Tau protein, synapsin expression) biochemical and histochemical evaluation (Ravelli et al., 2016).

[8] = tested on: MOG35-55-induced EAE in C57BL/6 mice; experiment: Experimental Autoimmune Encephalomyelitis (EAE), model for multiple sclerosis; format: in vivo
Description: In this study, the therapeutic effect of metal-DFO complex on multiple sclerosis (MS) is tested, using the Experimental Autoimmune Encephalomyelitis (EAE) in mice.
EAE is induced in 8-week-old female C57BL/6 mice by subcutaneous (SC) injection of 125 μg of myelin oligodendrocyte glycoprotein 35-55 peptide (MOG35-55) emulsified in complete Freund's adjuvant (CFA) containing 5 mg/ml heat-killed Mycobacterium tuberculosis into the left para-lumbar region. Immediately thereafter, and again at 48 h, the mice are inoculated intraperitoneal (IP) with 0.5 ml of pertussis toxin (400 ng). Seven days later, the mice are further challenged with an additional injection of MOG35-55 peptide in CFA injected into the right para-lumbar region. Mice are treated with Zn-DFO or Ga-DFO daily as IP injections, 2 mg/kg and 6 mg/kg.
The severity of the disease is assessed using the scale shown in Table 2 (Bittner et al., 2014).

[9] = tested on: MPTP model in C57BL/6 mice; experiment: MPTP mouse model of Parkinson's disease; format: in vivo; conditions: 2 mg/kg daily IP
Description: In this study, the therapeutic effect of metal-DFO complex on Parkinson's disease is tested, using the 1-methyl-4-phenyl-1,2,3,6-tetrahydropyridine (MPTP) model in mice.
Parkinson's disease is induced in 10 weeks old male C57BL/6 mice by four continuous IP injections of 20 mg/kg of MPTP, every 2 hours and during 8 hours, for 5 days (Jackson-Lewis and Przedborski, 2007). The animals are treated with Zn-DFO or Ga-DFO by daily IP injections, 2 mg/kg and 6 mg/kg, 30 min prior to the first exposure to MPTP. On day 8 the animals are euthanized. Immediately after the euthanasia, the striata are dissected out to perform biochemical and histological assessment of the damage to dopaminergic innervation.

[10] = tested on: contusion spinal cord injury model in C57BL/6 mice; experiment: Contusion spinal cord injury model; format: in vivo; conditions: 3 mg/kg IP
Description: In this study, the therapeutic effect of metal-DFO complex on spinal cord injury was tested, using a contusion spinal cord injury model in C57BL/6 mice.
A contusion spinal cord injury model was employed using Infinite Horizon spinal cord impactor. The injury was performed at force setting of 70 kilodyne, for 100 ms (milisecond) on exposed T12 vertebra of the mouse (8 weeks old male), anesthetized with a ketamine-xylazine mixture (85:15), and immobilized. Immediately before the impact, the mice were injected with buprenorphine (0.1 mg/ml/kg body weight) as an analgesic.
Twenty one mice, after contusion, were divided into three groups (n=7), according to their treatment as following (Basso et al., 2006): Group 1—control untreated; Group 2—treated with saline (IP injections of 100 μl on Days 1, 2, 3, 4, 6, 8, 10, 12, 14, 17, 20, 23, 27, 31, 35, 39, and 42); Group 3—treated with Zn-DFO complex, 3 mg/kg body weight in saline (IP injections of 100 μl according to the same regimen as Group 2). Both treated groups (saline and Zn-DFO complex) received the first treatment 10 min following the Impactor-induced trauma.
The post-traumatic recovery of mice locomotion with or without treatment was assessed on a daily basis for the next 43 days, using open field Basso mouse scale (BMS) score as following: 0—no ankle movement; 1—slight ankle movement; 2—extensive ankle movement; 3—plantar placing of the paw with or without weight support, or occasional, frequent or consistent dorsal stepping but no plantar stepping; 4—occasional plantar stepping; 5—frequent or consistent plantar stepping, no coordination, or frequent or consistent plantar stepping, some coordination, paws rotated at initial contact and lift off (R/R); 6—frequent or consistent plantar stepping, some coordination, paws parallel at initial contact (P/R, P/P), or frequent or consistent plantar stepping, mostly coordinated, paws rotated at initial contact and lift off (R/R); 7—frequent or consistent plantar stepping, mostly coordinated, paws parallel at initial contact and rotated at lift off (P/R), or frequent or consistent plantar stepping, mostly coordinated, paws parallel at initial contact and lift off (P/P), and severe trunk instability; 8—frequent or consistent plantar stepping, mostly coordinated, paws parallel at initial contact and lift off (P/P), and mild trunk instability, or frequent or consistent plantar stepping, mostly coordinated, paws parallel at initial contact and lift off (P/P), and normal trunk stability and tail down or up & down; and 9—frequent or consistent plantar stepping, mostly coordinated, paws parallel at initial contact and lift off (P/P), and normal trunk stability and tail always up (P—parallel; R—rotated). The values were normalized considering the basal score on Day 0 as 100%.
On Day 43, the animals were euthanized, and their spinal cords were excised and stored in paraformaldehyde (PFA) 4% for histological analysis. Epon blocks were prepared, and the histological analysis was performed after staining with methylene blue.

[11] = rat, in vivo, ip
Description: as §2, §4

H9C2 cardiomyocytes = experiment: Penetration of cellular membranes in tissue culture model; format: in vitro ADME; conditions: data not shown
From the text: It is postulated that some of the useful effects exerted by DFO in inhibiting ROS formation are achieved through its actions as a chelating agent (chelant, chelator, or sequestering agent), capable of forming soluble complexes, i.e., chelates, with certain metal ions and consequently inactivating said metal ions such that they cannot normally react with other elements or ions. Such chelates often have chemical and biological properties that are markedly different from those of either the chelator or metal ion, alone. For example, whereas DFO is a molecule having a noodle-like structure that can sparingly infiltrate into cells, metal-chelates formed by said molecule, e.g., the zinc-, gallium- or iron-chelates, assume a globular structure capable of infiltrating into cells.

[12] = rat, in vivo, ip; remark: listed apart in the source
Description: as §1, §2, §3

## CC(=O)N(O)CCCCCNC(=O)CCC(=O)N(O)CCCCCNC(=O)CCC(=O)N(O)CCCCCN [DFO, N′-[5-(Acetyl-hydroxy-amino)pentyl]-N-[5-[3-(5-aminopentyl-hydroxy-carbamoyl)propanoylamino]pentyl]-N-hydroxy-butane diamide]
[1]
  relative stability constant of DFO complex: 10^14
[2]; 250 mg/kg
  DFO (mg/g organ): <0.005 mg/g organ
  DFO (mg/whole organ): <0.005 mg/whole organ
[2]; 500 mg/kg
  DFO (mg/g organ): <0.005 mg/g organ
  DFO (mg/whole organ): <0.005 mg/whole organ
[2]; 1000 mg/kg
  DFO (mg/g organ): 0.008 ± 0.004 mg/g organ
  DFO (mg/whole organ): 0.019 ± 0.008 mg/whole organ
[2]; rat, IP, 250 mg/kg
  DFO infiltrated the brain (%): <0.0015%
[2]; rat, IP, 500 mg/kg
  DFO infiltrated the brain (%): <0.0015%
[2]; rat, IP, 1000 mg/kg
  DFO infiltrated the brain (%): 0.002%
[2]; rat, IP, over the 3 doses (250, 500 and 1000 mg/kg)
  fraction of DFO that had infiltrated into the brain: ≤ 0.002%
[3]
  relative stability constant of DFO complex: 10^28
[4]
  relative stability constant of DFO complex: 10^11
[5]; IP 250 mg/kg
  changes in rats' behavior: no changes in rats' behavior was observed
[5]; IP 500 mg/kg
  changes in rats' behavior: no changes in rats' behavior was observed
[5]; IP 1000 mg/kg
  changes in rats' behavior: no changes in rats' behavior was observed
[6]
  relative stability constant of DFO complex: 10^31

## CC(=O)N(O)CCCCCNC(=O)CCC(=O)N(O)CCCCCNC(=O)CCC(=O)N(O)CCCCCN.[Eu+3] [Eu-DFO]
[7]
  diminishing expression of synapsin: Only a minute effect
  expression of Aβ protein and phosphorylation of Tau protein in the hippocampus: slightly better than Ga-DFO

## CC(=O)N([O-])CCCCCNC(=O)CCC(=O)N([O-])CCCCCNC(=O)CCC(=O)N([O-])CCCCCN.[Ga+3] [Ga-DFO, gallium-desferrioxamine B]
[7]
  diminishing expression of synapsin: attenuate this process dose-dependently
  expression of Aβ protein and phosphorylation of Tau protein in the hippocampus: inhibited
  impairment of maze and NOR test outcomes: (largely) prevent this impairment in a dose-dependent manner
[8]; 2 mg/kg daily IP
  onset of the disease: 14 days
[8]; 6 mg/kg daily IP
  onset of the disease: 15 days
[9]
  number of TH-positive neurons within the substantia nigra (% of control): 65%

## Zinc-desferrioxamine B [Zn-DFO]
[7]
  diminishing expression of synapsin: attenuate this process dose-dependently
  expression of Aβ protein and phosphorylation of Tau protein in the hippocampus: inhibited
  impairment of maze and NOR test outcomes: (largely) prevent this impairment in a dose-dependent manner
[8]; 2 mg/kg daily IP
  onset of the disease: 14 days
[8]; 6 mg/kg daily IP
  onset of the disease: 15 to 16 days
[8]; 6 mg/kg daily IP, Day 19, Table 2 scale
  peak clinical score: less than 3
[10]; Day 13
  BMS score: 5.1
  normalized BMS score (% of initial scoring, Day 0): 347%
[10]; Day 29
  normalized BMS score (% of initial scoring), plateau: 389%
[10]; Day 29, scale 0-9
  BMS score, plateau: 5.7
[10]; spinal cord histology, Day 43
  density of axons and axonal myelin sheath in white matter: restoring the density of axons and axonal myelin sheath
  white matter area (fraction of the total area): 50.8±3.3%
[10]; vs non-treated or saline-treated animals
  body weight gain: gained weight better than the non-treated or saline-treated animals
[9]
  number of TH-positive neurons within the substantia nigra (% of control): 65%
[11]; 250 mg/kg
  changes in rats' behavior: no changes in the rats' behavior could be identified
[11]; 500 mg/kg
  changes in rats' behavior: no changes in the rats' behavior could be identified
[11]; 1000 mg/kg
  changes in rats' behavior: passive and apathetic
H9C2 cardiomyocytes
  ability to infiltrate into the cells relative to DFO alone: more than threefold higher
[12]
  infiltrability into the brain relative to DFO alone: at least 8.6 fold
[12]; 250 mg/kg
  DFO (mg/g organ): 0.017 ± 0.002 mg/g organ
  DFO (mg/whole organ): 0.032 ± 0.004 mg/whole organ
  DFO infiltrated the brain (%): 0.014%
[12]; 500 mg/kg
  DFO (mg/g organ): 0.031 ± 0.001 mg/g organ
  DFO (mg/whole organ): 0.054 ± 0.002 mg/whole organ
  DFO infiltrated the brain (%): 0.012%
[12]; 1000 mg/kg
  DFO (mg/g organ): 0.072 ± 0.011 mg/g organ
  DFO (mg/whole organ): 0.133 ± 0.010 mg/whole organ
  DFO infiltrated the brain (%): 0.014%
